Data on two molecules can be found in article PMC10399118, “Detection of endogenous NPY release determined by novel GRAB sensor in cultured cortical neurons” (Frontiers in Cellular Neuroscience, 2023).

For assay [1], the system named is cultured cortical neurons. Description: sRGECO calcium sensor imaging of neuronal activity in cultured cortical neurons. The assay is classed as cell-based, mouse. As to the method:
Cortex was isolated from postnatal day 1–2 (P1-P2) mice (C57Bl/6, Charles River, Germany), and the meninges were removed in ice-cold dissection media containing 10% 10xHBSS (Gibco, Scotland, #14065056), 1% P/S, 1% sodium pyruvate (Gibco, Scotland, #11360070), 1% 1M HEPES (Gibco, Scotland), and 1.2% 45% glucose (Sigma-Aldrich, Germany). […]
Neurons were continuously perfused with artificial cerebrospinal fluid (aCSF) [120 mM NaCl, 5 mM KCl, 2 mM CaCl2, 2 mM MgCl2, 25 mM HEPES, and 30 mM D-glucose] at pH 7.4 and 32°C for all live imaging experiments. […] The collected images were recorded either at a frame rate of 1 frame/second when recording GRAB NPY1.0 alone or 4 frames/second when the sRGECO signal was also recorded. […]
(§1) Epifluorescence imaging was conducted under constant slow perfusion of aCSF buffers at a flow rate of approximately 1 ml/min. To induce neuronal activity, bicuculline (Bic; 50 μM; 14340, Sigma-Aldrich, Germany; dissolved in DMSO) and 4-aminopyridine (4-AP; 250 μM; 275875, Sigma-Aldrich, Germany; dissolved in Milli-Q water) was added together with aCSF, which was carefully measured after adding the compounds to confirm a pH of 7.4. […]

Assay [2] concerns GRAB NPY1.0 sensor. Description: GRAB NPY1.0 sensor live-cell fluorescence imaging in cultured cortical neurons. The assay is classed as cell-based, mouse. As to the method: Cortex was isolated from postnatal day 1–2 (P1-P2) mice (C57Bl/6, Charles River, Germany), and the meninges were removed in ice-cold dissection media containing 10% 10xHBSS (Gibco, Scotland, #14065056), 1% P/S, 1% sodium pyruvate (Gibco, Scotland, #11360070), 1% 1M HEPES (Gibco, Scotland), and 1.2% 45% glucose (Sigma-Aldrich, Germany). The cortices were cut into smaller pieces and incubated for 20–30 min at 37°C in papain solution containing 20 units/mL papain (Worthington Biochemical, #LS003126), 1mM L-cysteine (Sigma-Aldrich, Germany, #C7352), 1.9 mM CaCl2 (Sigma-Aldrich, Germany), 0.5 mM Kynurenic acid (Sigma-Aldrich, Germany, #K3375), pH adjusted to 7.4 with HCl and oxygenated with 95% O2 and 5% CO2. After incubation, the tissue was washed 3 times with Neurobasal A media and carefully triturated 3–5 times with a glass Pasteur pipette with a fire-polished tip. The dissociated cortical neurons were plated at a density of 100,000 or 150,000 cells/well onto the glia monolayered 18- or 25-mm coverslips, respectively, and grown in Neurobasal A media containing 1% Glutamax, 2% B-27, and 0.1% P/S. The day after seeding the neurons, half of the media was changed to remove any cell debris. Every 3–4 days, 1/4 of the media in the wells was removed and replaced with double of the removed volume of fresh neuronal media. The use of experimental animals was conducted in concordance with the Danish Research Ethical Committee for Experimental Animals (ethical permit #2017-15-0202-00092; PI: Andreas Toft Sørensen).
The following AAV vectors were used for experiments: GRAB NPY1.0 sensor (AAV2/9-hSyn-GRAB_NPY1.0; 6E+12−4.7E+13 vg/ml, 1 μL/well); sRGECO calcium sensor (AAV2/8-Ef1a-sRGECO-WPRE; Addgene plasmid #137125; RRID:Addgene_137125; 2.2E+13 vg/ml, 0.2 μL/well) ([Fenno et al., 2020]); NPY1-36 vector (AAV2/8-hSyn-PreproNPY-WPREpA; full-length peptide incl. CPON; produced in-house; 7.8E+12 vg/ml, 0.5 μL/well) ([Soud et al., 2019]). Primary cultures were transduced after 2–3 DIV and given […] to assure robust expression before being used for live-cell imaging.
Neurons were continuously perfused with artificial cerebrospinal fluid (aCSF) [120 mM NaCl, 5 mM KCl, 2 mM CaCl2, 2 mM MgCl2, 25 mM HEPES, and 30 mM D-glucose] at pH 7.4 and 32°C for all live imaging experiments. An RC-21BDW microscope flow chamber (Warner Instruments, Hamden, CT, USA) was used to hold the coverslips and to apply a flow of different aCSF and drug buffers during imaging at 20× with a Nikon Eclipse Ti microscope connected to two EM-CCD cameras (iXon3 897, Andor). A NIS-Elements software (Nikon, Tokyo, Japan) was used for recordings. GRAB NPY1.0 and sRGECO biosensors were excited with 488 nm and 561 nm laser lines (LED sapphire laser; Coherent Inc., Santa Clara, CA, USA), respectively. For the 488 nm LED laser excitation, a 491 nm mirror, and a 475/35 nm band-pass filter were used, while a 525/50 nm band-pass filter (AHF Analysentechnik, Tübingen-Pfrondorf, Germany) was used to detect emitted light. For the 561 nm LED laser excitation, a 561 nm mirror, and a 560/40 nm band-pass filter were used, while a 630/75 nm band-pass filter (AHF Analysentechnik, Tübingen-Pfrondorf, Germany) was used to detect emitted light. The collected images were recorded either at a frame rate of 1 frame/second when recording GRAB NPY1.0 alone or 4 frames/second when the sRGECO signal was also recorded. All recordings were performed using epifluorescence microscopy.
as §1

The test system of assay [3] is GRAB NPY1.0 sensor. The following applies: ref Wang et al., 2022, read-out: EC50 of GRAB NPY1.0 sensor response, cited from earlier work. From the text:
Here, we report on the usage of the GRAB NPY1.0 sensor in mouse-cultured cortical neurons and address the question: can the sensor detect the release of endogenous NPY? This sensor, recently developed in the Yulong Li laboratory, Peking University of China, is one of six neuropeptide-based GRAB sensors engineered for detecting either SST, CCK, CRF, NTS, VIP or NPY ([Wang et al., 2022]). While it was shown that the SST, CCK, and CRF sensors can detect endogenously released neuropeptides ([Wang et al., 2022]), similar information is lacking on the NPY1.0 sensor. In our setup, we tested the NPY1. ...

Setting [4] is: transgene NPY cultures, BIBO3304 applied during Bic + 4-AP.

Read-outs that look alike come from different tables or passages of the source.

Take `NC(=O)NCc1ccc(CNC(=O)[C@@H](CCCN=C(N)N)NC(=O)C(c2ccccc2)c2ccccc2)cc1` [BIBO3304]: the “effect on high-frequency activity induced by Bic + 4-AP (sRGECO signal)” value in assay [1] (BIBO3304 applied to the cultures) is “not per se affected”. The “change of GRAB NPY1.0 fluorescence signal at baseline conditions” value with GRAB NPY1.0 sensor [2] (BIBO3304 1 μM applied at baseline, n = 90 neurons from 2 coverslips) is “remained unchanged”. In addition, the “change of GRAB NPY1.0 fluorescence when added during Bic + 4-AP” value with GRAB NPY1.0 sensor [2] (NPY transgene (AAV-NPY) cortical cultures, BIBO3304 1 μM added to Bic 50 μM + 4-AP 250 μM, n = 128 neurons from 6 coverslips) is recorded as “significant drop in fluorescence”. In the assay with GRAB NPY1.0 sensor [2] (setting [4]), the “effect on GRAB NPY1.0 signal of cluster A during Bic + 4-AP” value is “not affected”; the “effect on GRAB NPY1.0 signal of clusters B and C during Bic + 4-AP” value was “significantly reduced”.
As for Neuropeptide Y [NPY], the “change of sRGECO fluorescent signal (neuronal activity) during continuous Bic + 4-AP perfusion” value in assay [1] (exogenous NPY added to primary cultures during Bic + 4-AP) was “marked decrease”. In the assay with GRAB NPY1.0 sensor [2] (1 μM exogenous NPY, naive mouse cortical cultures, 174 neurons from 9 coverslips), the “neurons expressing the GRAB NPY1.0 sensor that remained unresponsive” value is 8 out of 174. The EC50 in the assay with GRAB NPY1.0 sensor [2] (mouse cultured cortical neurons expressing GRAB NPY1.0, exogenous NPY1-36 0.3, 1, 30, 1000 nM in aCSF with 1% BSA, pH 7.4, 32°C, mean ΔF/F0, three-parameter fit, n = 130 neurons from 5 coverslips, read-out: EC50 of GRAB NPY1.0 fluorescence response (normalized dose-response curve)) is 38 nM; in the assay on GRAB NPY1.0 sensor [3] (HEK293T cells stably expressing the NPY1.0 sensor) it was 40 nM; with GRAB NPY1.0 sensor [3] (rat cortical neurons transduced by a similar AAV9 vector with human synapsin promoter) it was 0.7 nM.
